Reference: publication PMC3004780 (Journal of nuclear medicine : official publication, Society …, 2009)

Legend:
neutrophil FPR = details: read-out: Kd for neutrophil FPR; unaltered parent peptide, antagonist; cited from earlier work
[1] = system: Klebsiella pneumoniae lung inflammation model; format: in vivo, mouse
[2] = mouse, in vivo
[3] = system: Klebsiella pneumoniae lung inflammation model; format: in vivo, mouse; details: excised tissue, 18 hr post injection, control n=4, Klebsiella-infected n=6 mice

Substance	Kd (neutrophil FPR)	Average lung SUV, control mice ([1]; PET 18 hr post injection, n=4, mean ± SD)	Average lung SUV, Klebsiella infected mice ([1]; PET 18 hr post injection, n=6, mean ± SD)	Ligand half-life in the control lung ([1]; mouse, in vivo)	Ligand half-life in the infected lung ([1]; mouse, in vivo)	Blood half-life [2]	Blood clearance (biological) half-life ([2]; iv)	Mean ratio of radioactivity in infected to control lungs [3]
N-cinnamoyl-F-(D)L-F-(D)L-F [cFLFLF]	2 nM	–	–	–	–	–	–	–
cFLFLF-PEG76-DOTA-^64Cu [cFLFLFK-PEG-^64Cu]	–	0.028 ± 0.003	0.142 ± 0.054	4.8 ± 0.7 h	10.3 ± 2.9 h	approximately 1 hour	55 ± 8 min	3.8
